Test results as given in patent US9227979B2, “Fluorescent antagonists of the A3 adenosine receptor” (The United States of America, as represented by the …, priority 2012, dated 2016).

Legend:
hA3AR [1] = biological target: T1, hA3AR (Homo sapiens (Human), UniProt P0DMS8); assay: FCM competitive binding in whole CHO cells using MRS5449 as tracer; conditions: whole CHO cells expressing hA3AR; 5 nM MRS5449 tracer; 90 min at 37° C.
Method: Total binding was measured in the absence of the competitor.
At the end of each time interval, the medium was removed and cells were washed three times with ice-cold DPBS. After washing, 1 ml 0.2% EDTA solution was added to each well, and cells were incubated at 37° C. for 7 min. Following cell detachment, 1 ml medium was added to each well to neutralize the EDTA. The cell suspensions were transferred to polystyrene round-bottom BD Falcon tubes (BD, Franklin Lakes, N.J.) and centrifuged for 5 min at 23° C. and 400×g. After centrifugation, the supernatant was discarded, and cells were washed with 3 ml PBS and centrifuged again at 23° C. and 400×g for 5 min. After discarding the supernatant, cells were suspended in 0.5 ml PBS and analyzed by FCM.
The intensity of fluorescence emission of each sample was measured by using FCM. […] Samples were maintained in the dark during the analysis to avoid photobleaching. MFIs were obtained in the FL-1 channel in log mode. Ten thousand events were analyzed per sample.
Data analysis was performed with the Prism 5 (GraphPad, San Diego Calif.) software. The mean autofluorescence of CHO cells was measured in the absence of the fluorescent ligand.

hA2AAR = hA2AAR (Homo sapiens (Human), UniProt P29274); assay: Radioligand membrane binding assay at hA2A AR ([3H]CGS21680); conditions: Table 3; read-out: A2A Ki
Method: (§1) For cell cultures used in radioligand binding assays, after harvest and homogenization, the cells were centrifuged at 200×g for 10 min, and the pellet was re-suspended in 50 mM Tris-HCl buffer (pH 7.5), containing 10 mM MgCl2. The suspension was homogenized with an electric homogenizer for 10 s and was then re-centrifuged at 20,000×g for 20 min at 4° C. The resultant membrane pellets were resuspended in buffer in the presence of 3 units/ml adenosine deaminase, and the suspension was stored at −80° C. until the binding experiments. The protein concentration was measured using the Bradford assay. Radioligand membrane binding assays

hA1 AR = hA1 AR (Homo sapiens (Human), UniProt P30542); assay: Radioligand membrane binding assay at hA1 AR ([3H]R-PIA); conditions: Table 3
Method: as §1

hA3AR [2] = biological target: T1, hA3AR; assay: Radioligand membrane binding assay at hA3AR ([125I]I-AB-MECA); conditions: Table 3; read-out: A3 Ki
Method: as §1

T1 sequence (P0DMS8 whole entry): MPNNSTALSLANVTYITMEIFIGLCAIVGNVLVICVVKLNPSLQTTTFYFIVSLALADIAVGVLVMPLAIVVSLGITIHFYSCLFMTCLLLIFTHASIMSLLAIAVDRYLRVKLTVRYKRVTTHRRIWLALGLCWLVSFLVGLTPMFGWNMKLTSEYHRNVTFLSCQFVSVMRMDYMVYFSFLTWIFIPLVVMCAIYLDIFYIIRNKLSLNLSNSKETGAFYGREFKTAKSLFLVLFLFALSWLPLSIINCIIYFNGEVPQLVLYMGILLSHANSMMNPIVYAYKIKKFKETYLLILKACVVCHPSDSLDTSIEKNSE
hA2AAR, sequence (P29274 whole entry): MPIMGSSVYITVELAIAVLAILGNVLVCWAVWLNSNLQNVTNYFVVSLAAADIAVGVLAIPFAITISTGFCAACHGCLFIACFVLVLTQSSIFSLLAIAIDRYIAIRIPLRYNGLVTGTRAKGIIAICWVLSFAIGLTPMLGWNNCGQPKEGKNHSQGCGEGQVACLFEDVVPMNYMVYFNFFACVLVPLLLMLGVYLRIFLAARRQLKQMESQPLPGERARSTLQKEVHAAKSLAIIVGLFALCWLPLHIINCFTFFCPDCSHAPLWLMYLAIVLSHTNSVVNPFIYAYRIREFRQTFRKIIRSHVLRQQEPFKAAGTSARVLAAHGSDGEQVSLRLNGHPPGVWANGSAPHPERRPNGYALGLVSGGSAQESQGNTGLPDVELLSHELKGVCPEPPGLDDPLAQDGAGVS
hA1 AR, sequence (P30542 whole entry): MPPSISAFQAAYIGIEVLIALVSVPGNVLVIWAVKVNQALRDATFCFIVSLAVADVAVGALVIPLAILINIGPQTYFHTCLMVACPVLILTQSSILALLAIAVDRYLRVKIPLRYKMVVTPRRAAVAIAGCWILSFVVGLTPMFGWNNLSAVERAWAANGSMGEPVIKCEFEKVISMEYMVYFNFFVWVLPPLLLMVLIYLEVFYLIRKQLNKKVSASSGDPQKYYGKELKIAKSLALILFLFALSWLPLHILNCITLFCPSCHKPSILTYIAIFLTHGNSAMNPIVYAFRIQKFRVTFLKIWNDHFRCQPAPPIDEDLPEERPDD

| Ki (hA3AR [1]) | Structure (SMILES) | melting point | Ki (hA2AAR) | A1 % inhibition (hA1 AR) | Ki (hA3AR [2]) |
| --- | --- | --- | --- | --- | --- |
| 1490 ± 230 nM | OC[C@H]1O[C@@H](n2cnc3c(NC4CCCC4)ncnc32)[C@H](O)[C@@H]1O [CPA, (2R,3R,4S,5R)-2-[6-(cyclopentylamino)purin-9-yl]-5(hydroxymethyl)oxolane-3,4-diol] | – | – | – | – |
| 300 ± 27 nM | Nc1nc(NCCc2ccc(O)cc2)nc2nc(-c3ccco3)nn12 [ZM241385, 4-(2-[7-amino-2-(2-furyl)[1,2,4]triazolo[2,3-a][1,3,5]triazin-5-ylamino]ethyl)phenol] | – | – | – | – |
| – | Cn1cc2c(nc(NC(=O)Nc3ccc(CC(=O)NCCCOCCOCCOCCCN)cc3)n3nc(-c4ccco4)nc23)n1.O=C(O)C(F)(F)F [Compound 21, N-(3-(2-(2-(3-aminopropoxy)ethoxy)ethoxy)propyl)-2-(4-(3-(2-(furan-2-yl)-8-methyl-8H-pyrazolo[4,3-e][1,2,4]triazolo[1,5-c]pyrimidin-5-yl)ureido)phenyl)acetamide trifluoroacetate salt] | 133 to 140 °C | 328 ± 77 nM | 1% ± 1% | 10.3 ± 0.4 nM |
| – | Cn1cc2c(nc(NC(=O)Nc3ccc(CC(=O)NCCCCN)cc3)n3nc(-c4ccco4)nc23)n1.O=C(O)C(F)(F)F [Compound 18, N-(4-Aminobutyl)-2-(4-(3-(2-(furan-2-yl)-8-methyl-8H-pyrazolo[4,3-e][1,2,4]triazolo[1,5-c]pyrimidin-5-yl)ureido)phenyl)acetamide trifluoroacetate salt] | 167 to 173 °C | 172 ± 33 nM | 4% ± 1% | 6 ± 1.29 nM |
| – | Cn1cc2c(nc(NC(=O)Nc3ccc(CC(=O)NCCCNC(=O)OC(C)(C)C)cc3)n3nc(-c4ccco4)nc23)n1 [Compound 12, tert-Butyl (3-(2-(4-(3-(2-(furan-2-yl)-8-methyl-8H-pyrazolo[4,3-e][1,2,4]triazolo[1,5-c]pyrimidin-5-yl)ureido)phenyl)acetamido)propyl)carbamate] | 198 to 205 °C | 150 ± 11 nM | 15% ± 5% | 2.75 ± 0.2 nM |
| – | Cn1cc2c(nc(NC(=O)Nc3ccc(CC(=O)NCCOCCOCCN)cc3)n3nc(-c4ccco4)nc23)n1.O=C(O)C(F)(F)F [Compound 20, 2-(2-(2-(2-(4-(3-(2-(furan-2-yl)-8-methyl-8H-pyrazolo[4,3-e][1,2,4]triazolo[1,5-c]pyrimidin-5-yl)ureido)phenyl)acetamido)ethoxy)ethoxy)ethanamine trifluoroacetate salt] | 152 to 160 °C | 267 ± 61 nM | 17% ± 3% | 19.2 ± 3.3 nM |

| Structure (SMILES) | Ki (hA3AR [1]) | melting point | Ki (hA2AAR) | A1 % inhibition (hA1 AR) | Ki (hA3AR [2]) |
| --- | --- | --- | --- | --- | --- |
| Nc1nc2ccc(Cl)cc2c2nc(-c3ccco3)nn12 [Compound 7] | 16.1 ± 6.2 nM | – | – | – | – |
